# Patent US20260008758A1, “LINEAR DIPEPTIDYL PEPTIDASE 1 INHIBITORS AND USES THEREOF” (Insmed Incorporated, priority 2024, published 2026)
# Assays:
# [1] = target: T1, human DPP1 enzyme (Homo sapiens (Human), UniProt P53634); assay: Human DPP1 enzyme IC50 assay; type: biochemical; conditions: recombinant human DPP1, H-Gly-Arg-AMC substrate 400 μM
# Protocol: Test articles were applied to activated human DPP1 enzyme in Assay Buffer (25 mM MES pH 6.0, 50 mM NaCl, 5 mM DTT) in a total reaction volume of 125 μL. 25 μL of compound in Assay Buffer plus 5% DMSO was first added to 50 μL of activated human DPP1 enzyme at a concentration of 1 ng/μL and allowed to pre-incubate for 10 minutes at 37° C. after which 50 μL of 1000 μM H-Gly-Arg-AMC substrate (Bachem; St. Torrance, CA) was added, giving final substrate concentration of 400 μM and a final DMSO concentration of 1%. Substrate cleavage was measured for 90 minutes at 37° C., with fluorescence at Excitation/Emission 350/450 nm measured every 5 minutes. DPP1 concentration was interpolated based on its activity relative to a standard curve of activated human recombinant DPP1 enzyme. IC50 values for each compound were calculated via the XLFit (IDBS Version 5.3.1.3) Add-On to Microsoft Excel using the four parameter fit equation y={A+[(B-A)]/[1+((C/x)^D)]}, which appears as equation number 205 (4 Parameter Logistic Model or Sigmoidal Dose-Response Model) in XLFit. Default constraints were used for each Parameter.
# [2] = target: T1, human DPP1 enzyme; assay: Human DPP1 enzyme single-point percent inhibition testing (HL-60 lysate, H-Gly-Arg-AMC substrate); type: biochemical; conditions: read-out: human DPP1 enzyme % inhibition @ 10 nM, 10 nM compound, 400 μM H-Gly-Arg-AMC, 10 min pre-incubation at 37° C.
# Protocol: A crude lysate of HL-60 cells (ATCC; Manassas, VA) was used as a source of human DPP1 enzyme in the assay. Lysate was prepared in 1% Triton X-100 in PBS at a concentration of 20,000 live cells per […] of lysis buffer and was centrifuged at 16,000 rcf for 10 minutes at 4° C., after which supernatant was collected and flash-frozen in liquid nitrogen. Test articles were applied to human DPP1 enzyme in Assay Buffer (25 mM MES pH 6.0, 50 mM NaCl, 5 mM DTT) in a total reaction volume of 125 μL. 25 μL of compound diluted to 50 nM in Assay Buffer plus 5% DMSO was first added to 50 μL of HL-60 lysate diluted to contain a DPP1 enzyme concentration of roughly 1 ng/μL and allowed to pre-incubate for 10 minutes at 37° C. after which 50 μL of 1000 μM H-Gly-Arg-AMC substrate (Bachem; St. Torrance, CA) was added, giving final compound concentration of 10 nM, a final substrate concentration of 400 μM and a final DMSO concentration of 1%. Substrate cleavage was measured for 90 minutes at 37° C., with fluorescence at Excitation/Emission 350/450 nm measured every 5 minutes. DPP1 concentration was interpolated based on its activity relative to a standard curve of activated human recombinant DPP1 enzyme. Percent inhibition at 10 nM was calculated for each test article based on remaining DPP1 activity compared to enzyme activity in wells that received only vehicle control.
# [3] = target: DPP1 in HL-60 cells (Homo sapiens (Human), UniProt P53634); assay: DPP1 cell single-point percent inhibition testing (HL-60 cells, H-Gly-Phe-AFC substrate); type: cell-based; conditions: read-out: DPP1 cell % inhibition @ 5 nM, 5 nM compound, 100 μM H-Gly-Phe-AFC, 60 min pre-incubation at 37° C.
# Protocol: HL-60 cells (ATCC; Manassas, VA) were maintained in RPMI-1640 supplemented with 20% heat-inactivated FBS and 1× Antibiotic Antimycotic (Cytiva; Marlborough, MA). Media was changed every three to four days and cells were not allowed to exceed 1×10^6 cells per mL. Prior to assay, cells were collected by centrifugation at 500 rcf for 3 minutes, resuspended in RPMI (with no additional supplements) and counted. Cells were diluted in RPMI to a concentration of 5×10^5 live cells per mL and transferred to black 96-well plates for assay, 60 μL per well. Test articles were diluted to 25 nM in RPMI plus 0.5% DMSO, and 20 μL was added to each assay well. Compound was allowed to pre-incubate with cells with gentle shaking at 100 rpm for 60 minutes at 37° C. in a cell culture incubator maintained at 5% CO2, after which 20 μL of 500 μM H-Gly-Phe-AFC cell-permeable substrate (MP Biomedicals; Solon, OH) in RPMI was added to each well, giving final compound concentration of 5 nM, a final substrate concentration of 100 μM and a final DMSO concentration of 0.1%. Plates were returned to the incubator with shaking at 100 rpm for 30 minutes, after which fluorescence was measured at Excitation/Emission 400/505 nm. Percent Inhibition was calculated from RFU values by first subtracting background values (wells in which RPMI was substituted for cells) from each well, and then subtracting background-subtracted RFU derived from wells that received a final concentration of 10 μM brensocatib. This value represents the non-specific substrate cleavage from the HL-60 cells, and the remaining RFU should theoretically be solely the contribution of DPP1 enzyme activity. The final percent inhibition value was calculated for each test article based on remaining RFU compared to RFU from wells that received only vehicle control.
# DPP1 in HL-60 cells, sequence (P53634 25-134): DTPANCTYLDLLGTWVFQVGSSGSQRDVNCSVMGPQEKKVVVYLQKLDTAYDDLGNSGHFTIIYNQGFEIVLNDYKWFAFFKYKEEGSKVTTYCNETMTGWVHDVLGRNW
# DPP1 in HL-60 cells, sequence (P53634 231-394): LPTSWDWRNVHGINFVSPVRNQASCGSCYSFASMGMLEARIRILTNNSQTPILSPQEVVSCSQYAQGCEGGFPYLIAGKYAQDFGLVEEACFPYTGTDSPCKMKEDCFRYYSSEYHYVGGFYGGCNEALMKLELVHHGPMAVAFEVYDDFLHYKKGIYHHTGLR
# DPP1 in HL-60 cells, sequence (P53634 395-463): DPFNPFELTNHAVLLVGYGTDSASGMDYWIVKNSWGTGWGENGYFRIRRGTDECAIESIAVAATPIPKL
# T1 sequence (P53634 25-134): as the sequence (P53634 25-134) above
# T1 sequence (P53634 231-394): as the sequence (P53634 231-394) above
# T1 sequence (P53634 395-463): as the sequence (P53634 395-463) above
SMILES,IC50 [1] [nM],inhibition at 0.01 µM [2] [%],inhibition at 0.005 µM [3] [%]
"CN1CCN[C@@H](CC(=O)N[C@H](C#N)Cc2ccc(-c3ccc4oc(=O)n(C)c4c3)cc2)C1 [Compound 253, N-[(1S)-1-cyano-2-[4-(3-methyl-2-oxo-1,3-benzoxazol-5-yl)phenyl]ethyl]-2-(4-methylpiperazin-2-yl)acetamide]",≥ 15,,
"CCN1C(=O)Cc2ccc(-c3ccc(C[C@@H](C#N)NC(=O)[C@](C)(N)C4CCCC4)cc3)cc21 [Compound 259B, (2R)-2-amino-N-[(1S)-1-cyano-2-[4-(1-ethyl-2-oxo-3H-indol-6-yl)phenyl]ethyl]-2-cyclopentylpropanamide]",≥ 15,,
"Cc1cn2cc(-c3ccc(C[C@@H](C#N)NC(=O)[C@](C)(N)C4CCC4)c(F)c3)cc2c(C)n1 [Compound 272A, (R)-2-amino-N—((S)-1-cyano-2-(4-(1,3-dimethylpyrrolo[1,2-a]pyrazin-7-yl)-2-fluorophenyl)ethyl)-2-cyclobutylpropanamide]",≥ 15,,
"CN(C)C[C@H](O)C(=O)N[C@@H](C#N)Cc1cc2c(cc1F)-c1ccc(C#N)cc1CO2 [Compound 277B, (2S)—N-[(1R)-1-cyano-2-{8-cyano-2-fluoro-6H-benzo[c]chromen-3-yl}ethyl]-3-(dimethylamino)-2-hydroxypropanamide]",≥ 15,,
CO[C@@H](CN(C)C)C(=O)NC(C#N)Cc1cc2c(cc1F)-c1cc(C3COC3)c(F)cc1CO2 (stereo partly shown) [Compound 295],,40 to 66.7,≤ 76.5
CO[C@@H](CN(C)C)C(=O)N[C@H](C#N)Cc1cc2c(cc1F)-c1ccc(C#N)cc1CO2 [Compound 296],,≤ 40,≤ 76.5
CO[C@@H](CN(C)C)C(=O)NC(C#N)Cc1cc2c(cc1F)-c1cc3c(cc1CO2)oc(=O)n3C (stereo partly shown) [Compound 297],,≤ 40,≤ 76.5
CO[C@@H](CN(C)C)C(=O)NC(C#N)Cc1cc2c(cc1F)-c1cc(C#N)ccc1CO2 (stereo partly shown) [Compound 298],,≤ 40,≤ 76.5
CO[C@@H](CN(C)C)C(=O)NC(C#N)Cc1cc2c(cc1F)-c1ccc3oc(=O)n(C)c3c1CO2 (stereo partly shown) [Compound 299],,≤ 40,≤ 76.5
CO[C@@H](CN(C)C)C(=O)N[C@H](C#N)Cc1ccc(-c2ccc3c(c2)C2(CC3)CCN(C)CC2)cc1 [Compound 300],,40 to 66.7,≤ 76.5
CO[C@@H](CN(C)C)C(=O)N[C@H](C#N)Cc1ccc(-c2ccc3c(c2)C2(CCCN(C)C2)C(=O)N3C)cc1 (stereo partly shown) [Compound 301],,≤ 40,76.5 to 93.9
CO[C@@H](CN(C)C)C(=O)N[C@H](C#N)Cc1ccc(-c2ccc3oc(=O)n(CCN(C)C)c3c2)cc1 [Compound 302],,40 to 66.7,≤ 76.5
CO[C@@H](CN(C)C)C(=O)N[C@H](C#N)Cc1ccc(-c2cc3c(C)nc(C)cn3c2)cc1 [Compound 303],,≤ 40,≤ 76.5
CO[C@@H](CN(C)C)C(=O)N[C@H](C#N)Cc1ccc(-c2ccc3c(c2)C2(CN(C)C2)OC3=O)cc1 [Compound 304],,≤ 40,≤ 76.5
CCN1C(=O)Cc2ccc(-c3ccc(C[C@@H](C#N)NC(=O)[C@H](CN(C)C)OC)cc3)cc21 [Compound 305],,≤ 40,≤ 76.5
CO[C@@H](CN(C)C)C(=O)N[C@H](C#N)Cc1ccc(-c2ccc3c(c2)C2(CCN(C)C2)OC3=O)cc1 (stereo partly shown) [Compound 306],,≤ 40,≤ 76.5
CO[C@@H](CN(C)C)C(=O)N[C@H](C#N)Cc1ccc(-c2ccc3cnn(C4CCN(C)CC4)c3c2)cc1 [Compound 307],,40 to 66.7,≤ 76.5

SMILES,IC50 [1] [nM],inhibition at 0.01 µM [2] [%],inhibition at 0.005 µM [3] [%]
CO[C@@H](CN(C)C)C(=O)N[C@H](C#N)Cc1ccc(-c2ccc3c(c2)C2(CCN(C4COC4)CC2)OC3)cc1 [Compound 308],,≤ 40,≤ 76.5
CO[C@@H](CN(C)C)C(=O)N[C@H](C#N)Cc1ccc(-c2ccc3oc(=O)n(CCN4CCOCC4)c3c2)cc1 [Compound 309],,≤ 40,≤ 76.5
CO[C@@H](CN(C)C)C(=O)N[C@H](C#N)Cc1ccc(-c2ccc(CN3CCN(C)CC3)cc2)cc1 [Compound 310],,≤ 40,76.5 to 93.9
CO[C@@H](CN(C)C)C(=O)N[C@H](C#N)Cc1ccc(-c2ccc3oc(=O)n(C)c3c2)cc1 [Compound 311],,≤ 40,76.5 to 93.9
CO[C@@H](CN(C)C)C(=O)N[C@H](C#N)Cc1ccc(-c2ccc3c(n2)CCCN3)cc1 [Compound 312],,≤ 40,≤ 76.5
CO[C@@H](CN(C)C)C(=O)N[C@H](C#N)Cc1ccc(-c2ccc3c(c2)C2(CC3)CCN(C)CC2)cc1F [Compound 313],,≥ 66.7,≤ 76.5
CO[C@@H](CN(C)C)C(=O)N[C@H](C#N)Cc1ccc(-c2ccc3c(c2)C2(CCCN(C)C2)C(=O)N3C)cc1F (stereo partly shown) [Compound 314],,40 to 66.7,≥ 93.9
CO[C@@H](CN(C)C)C(=O)N[C@H](C#N)Cc1ccc(-c2ccc3oc(=O)n(CCN(C)C)c3c2)cc1F [Compound 315],,≥ 66.7,≤ 76.5
CO[C@@H](CN(C)C)C(=O)N[C@H](C#N)Cc1ccc(-c2cc3c(C)nc(C)cn3c2)cc1F [Compound 316],,≤ 40,≤ 76.5
CO[C@@H](CN(C)C)C(=O)N[C@H](C#N)Cc1ccc(-c2ccc3c(c2)C2(CN(C)C2)OC3=O)cc1F [Compound 317],,40 to 66.7,≤ 76.5
CCN1C(=O)Cc2ccc(-c3ccc(C[C@@H](C#N)NC(=O)[C@H](CN(C)C)OC)c(F)c3)cc21 [Compound 318],,40 to 66.7,76.5 to 93.9
CO[C@@H](CN(C)C)C(=O)N[C@H](C#N)Cc1ccc(-c2ccc3c(c2)C2(CCN(C)C2)OC3=O)cc1F (stereo partly shown) [Compound 319],,≥ 66.7,≤ 76.5
CO[C@@H](CN(C)C)C(=O)N[C@H](C#N)Cc1ccc(-c2ccc3cnn(C4CCN(C)CC4)c3c2)cc1F [Compound 320],,≥ 66.7,≤ 76.5
CO[C@@H](CN(C)C)C(=O)N[C@H](C#N)Cc1ccc(-c2ccc3c(c2)C2(CCN(C4COC4)CC2)OC3)cc1F [Compound 321],,40 to 66.7,≤ 76.5
CO[C@@H](CN(C)C)C(=O)N[C@H](C#N)Cc1ccc(-c2ccc3oc(=O)n(CCN4CCOCC4)c3c2)cc1F [Compound 322],,40 to 66.7,≤ 76.5
CN(C)C[C@H](O)C(=O)NC(C#N)Cc1cc2c(cc1F)-c1cc(C#N)ccc1CO2 (stereo partly shown) [Compound 340],,≤ 40,
